For data set [1] the following is noted: cited from earlier work.
A short description of data set [2]: Permanent waving of hair locks with reducing lotion. As to conditions: reducing lotion 20.83 g Compound A1 per 100 g, pH = 7, 15 minutes on curled hair, fixing with hydrogen peroxide at 8 volumes pH=3. The method, then: A reducing lotion is prepared:
The above lotion is applied to locks of grey hair which is 90% white. Curls are produced using curlers. The lotion is allowed to act on the curled hair for 15 minutes. The hair is rinsed with water. A conventional fixing composition based on hydrogen peroxide (hydrogen peroxide at 8 volumes, pH=3), is applied. Another rinsing is carried out. The curlers are removed.

Data set [3] is described as follows: Oxidation dyeing of permanently waved hair. As to conditions: compared with identical permanent waving with thioglycolic acid instead of A1, at equivalent curliness.

Consider `O=S(=O)(CCS)CCS` [BMS, bis(2-mercaptoethyl)sulphone], for which the solubility in water result in data set [1] is listed as “very sparingly soluble in water”. `CN(C(=O)CS)N(C)C(=O)CS` [Compound A1]: the curliness result in data set [2] is given as “Good curliness”. The “colour after 7.44 CRESCENDO oxidation dye on permanently waved hair” value in data set [3] was “closer to that obtained on non-permanently waved hair”.

The record behind these values is US20070134185A1, “Use of dithiols in a hair-perming composition” (priority 2003, published 2007).
